US9650339B2, “Inhibitors of histone demethylases” (Gilead Sciences, Inc., priority 2013, dated 2017)
pIC50: −log10 of the molar value.

What was measured:
KDM6A (UTX) = KDM6A (UTX) (Homo sapiens, UniProt O15550); experiment: Histone lysine demethylase AlphaLISA assay, KDM6A; format: biochemical; conditions: read-out: KDM6A HDME Inhibition IC50
Procedure, shortened: (§1)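 Each enzyme was pre-incubated 10 min in buffer, then 10 min with compound in 3% DMSO solution. The reaction started with biotinylated histone H3 peptide substrate plus 25 μM L-ascorbate and 10 μM α-KG at room temperature. Detection used AlphaLISA acceptor beads, then streptavidin donor beads, in the dark.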

KDM5B = biological target: T1, KDM5B (Homo sapiens, UniProt Q9UGL1); experiment: Histone lysine demethylase immunofluorescence assay, U2OS cells transfected with KDM5B; format: cell-based; conditions: U2OS cells transfected with pCMVHA KDM5B; mark detected H3K4me2; 20 hours
T1 construct: (a.a. 1-752); host or cells: U2OS
T1 sequence (Q9UGL1 1-752): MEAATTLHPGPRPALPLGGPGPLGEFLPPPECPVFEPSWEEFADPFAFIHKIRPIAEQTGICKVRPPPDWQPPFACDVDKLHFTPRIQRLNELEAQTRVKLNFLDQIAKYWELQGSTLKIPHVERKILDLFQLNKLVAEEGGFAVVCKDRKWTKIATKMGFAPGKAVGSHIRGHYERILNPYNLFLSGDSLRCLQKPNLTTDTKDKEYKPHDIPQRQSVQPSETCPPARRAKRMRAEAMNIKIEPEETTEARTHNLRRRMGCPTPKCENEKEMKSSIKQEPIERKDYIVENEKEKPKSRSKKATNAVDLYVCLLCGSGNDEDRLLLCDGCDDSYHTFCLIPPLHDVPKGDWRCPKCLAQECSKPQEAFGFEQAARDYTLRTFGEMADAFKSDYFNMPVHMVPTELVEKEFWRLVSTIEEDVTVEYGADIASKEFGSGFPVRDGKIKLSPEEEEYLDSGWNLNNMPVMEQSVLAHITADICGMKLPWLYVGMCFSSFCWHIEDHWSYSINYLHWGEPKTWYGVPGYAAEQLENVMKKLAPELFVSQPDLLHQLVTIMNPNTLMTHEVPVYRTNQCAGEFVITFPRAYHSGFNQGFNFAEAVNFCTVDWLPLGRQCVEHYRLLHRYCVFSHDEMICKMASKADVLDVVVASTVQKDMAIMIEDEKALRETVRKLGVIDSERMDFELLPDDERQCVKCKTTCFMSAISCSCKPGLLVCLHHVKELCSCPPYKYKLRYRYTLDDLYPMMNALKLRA
Procedure, shortened: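 U2OS cells were transiently transfected with HA-tagged demethylase and reseeded after 6 h into compound-containing DMEM/10% FBS for 20 h. Cells were fixed in formaldehyde and immunostained for HA and the relevant histone methyl mark, then imaged. IC50 is based on mean mark staining in HA+ transfected cells.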

KDM4C (JMJD2C) = biological target: T2, KDM4C (JMJD2C) (Homo sapiens, UniProt Q9H3R0); experiment: Histone lysine demethylase AlphaLISA assay, KDM4C; format: biochemical; conditions: read-out: KDM4C HDME Inhibition IC50
T2 sequence (Q9H3R0 1-349): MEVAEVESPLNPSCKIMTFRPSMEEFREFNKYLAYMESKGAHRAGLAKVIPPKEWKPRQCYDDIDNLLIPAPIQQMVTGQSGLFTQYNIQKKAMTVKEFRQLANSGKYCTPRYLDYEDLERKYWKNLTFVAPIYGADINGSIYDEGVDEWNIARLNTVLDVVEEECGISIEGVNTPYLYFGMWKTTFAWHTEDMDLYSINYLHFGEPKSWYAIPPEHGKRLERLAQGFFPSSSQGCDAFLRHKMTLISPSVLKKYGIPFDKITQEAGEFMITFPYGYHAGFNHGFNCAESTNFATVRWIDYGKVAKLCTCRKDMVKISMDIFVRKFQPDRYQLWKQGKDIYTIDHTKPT
Procedure, shortened: as §1

Sequence of KDM6A (UTX) (O15550 919-1401): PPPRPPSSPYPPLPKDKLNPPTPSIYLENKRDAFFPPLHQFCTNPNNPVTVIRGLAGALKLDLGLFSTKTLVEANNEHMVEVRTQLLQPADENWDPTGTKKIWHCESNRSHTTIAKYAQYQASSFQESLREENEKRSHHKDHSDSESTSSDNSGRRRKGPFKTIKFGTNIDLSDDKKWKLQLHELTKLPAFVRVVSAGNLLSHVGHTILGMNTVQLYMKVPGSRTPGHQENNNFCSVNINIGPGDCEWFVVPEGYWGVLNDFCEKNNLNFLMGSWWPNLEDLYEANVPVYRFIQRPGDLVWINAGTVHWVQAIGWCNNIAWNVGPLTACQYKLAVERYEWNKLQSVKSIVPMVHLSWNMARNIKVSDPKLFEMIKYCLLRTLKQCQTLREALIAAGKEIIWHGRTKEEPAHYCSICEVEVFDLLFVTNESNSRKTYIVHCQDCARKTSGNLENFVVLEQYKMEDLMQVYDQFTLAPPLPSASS

Row | SMILES | pIC50 (KDM6A (UTX)) | pIC50 (KDM5B) | pIC50 (KDM4C (JMJD2C))
1 | CCN(CC)CCCCNCc1cc(/C=N/CC(F)(F)C(F)(F)F)ccn1 [Compound 62, {[2-({[4-(diethylamino)-butyl]amino}methyl)pyridin-4-yl]methylidene} (2,2,3,3,3-pentafluoropropyl)-amine] | < 5.60 | > 6.60 | < 5.60
2 | CCN(CCN(C)C)C(=O)CNCc1cc(/C=N/CCC2CCCCC2)ccn1 [Compound 63, 2-[({4-[[(2-cydohexylethyl)-imino]methyl]pyridin-2-yl}methyl)amino]-N-[2-(dimethylamino)-ethyl]-N-ethylacetamide] | < 5.60 | > 6.60 | > 6.60
3 | CON=Cc1ccnc(CNCCCN(C)C)c1 [Compound 64, [3-(dimethylamino)-propyl]({4-[(methoxyimino)-methyl]pyridin-2-yl}methyl)amine] | < 5.60 | < 5.60 | < 5.60
4 | CCN(CC)CCCCNCc1cc(C2NCCN2C)ccn1 (stereo not drawn) [Compound 65, [4-(diethylamino)-butyl]({[4-(1-methylimidazolidin-2-yl)pyridin-2-yl]methyl})amine] | < 5.60 | > 6.60 | 5.60 to 6.60
5 | CCN(CCN(C)C)C(=O)CNCc1cc(/C=N/CCO)ccn1 [Compound 66] | < 5.60 | > 6.60 | > 6.60
6 | CCN(CC)CCCCNCc1cc(/C=N\CCC2CCCCC2)ccn1 [Compound 67, (2-cyclohexylethyl)-({[2-({[4-(diethylamino)-butyl]amino}methyl)pyridin-4-yl]methylidene})-amine] | < 5.60 | > 6.60 | 5.60 to 6.60
7 | CCN(CCN(C)C)C(=O)CNCc1cc(C2OCC(Cc3ccccc3)CN2C(=O)C(F)(F)F)ccn1 (stereo not drawn) [Compound 90, 2-[({4-[5-benzyl-3-(trifluoroacetyl)-1,3-oxazinan-2-yl]pyridin-2-yl}methyl)amino]-N-[2-(dimethylamino)-ethyl]-N-ethylacetamide] | < 5.60 | > 6.60 | 5.60 to 6.60
8 | CCN(CCN(C)C)C(=O)CNCc1cc(C2OCC3(CC3)CN2C(=O)C(F)(F)F)ccn1 (stereo not drawn) [Compound 91, N-[2--(dimethylamino)-ethyl]-N-ethyl-2-[({4-[7-(trifluoroacetyl)-5-oxa-7-azaspiro[2.5]-octan-6-yl]pyridin-2-yl}methyl)amino]-acetamide] | < 5.60 | > 6.60 | 5.60 to 6.60
9 | CN(Cc1ccccc1F)C(=O)CNCc1cc(/C=N/CCO)ccn1 [Compound 92, N-[(2-fluorophenyl)methyl]-2-[({4-[[(2-hydroxyethyl)imino]-methyl]pyridin-2-yl}methyl)amino]-N-methylacetamide] | < 5.60 | < 5.60 | < 5.60
10 | OCC/N=C/c1ccnc(CNCCc2ccccc2OCc2ccccc2)c1 [Compound 93, 2-[({2-[({2-[2-(benzyloxy)phenyl]-ethyl}amino)methyl]-pyridin-4-yl}methylidene)-amino]ethan-1-ol] | < 5.60 | < 5.60 | < 5.60
11 | CCN(CCC#N)C(=O)CNCc1cc(/C=N/CCO)ccn1 [Compound 94, N-(2-cyanoethyl)-N-ethyl-2-[({4-[[(2-hydroxyethyl)imino]-methyl]pyridin-2-yl}methyl)amino]-acetamide] | < 5.60 | 5.60 to 6.60 | 5.60 to 6.60
12 | CC(C)C[C@H](NCc1cc(/C=N/CCO)ccn1)C(=O)N1CCCCC1 [Compound 95, (2S)-2-[({4-[[(2-hydroxyethyl)imino]-methyl]pyridin-2-yl}methyl)amino]-4-methyl-1-(piperidin-1-yl)pentan-1-one] | < 5.60 | < 5.60 | < 5.60
13 | CN(C)CC1CCC(CNCc2cc(C=O)ccn2)CC1 (stereo not drawn) [Compound 97, 2-{[({4-[(dimethylamino)-methyl]cyclohexyl}-methyl)amino]-methyl}pyridine-4-carbaldehyde] | < 5.60 | > 6.60 | < 5.60
